The source of these data is paper PMC11480993, “Combining Data-Driven and Structure-Based Approaches in Designing Dual PARP1-BRD4 Inhibitors for Breast Cancer Treatment” (Journal of Chemical Information and Modeling, 2024).

For data set [1], the system named is PARP1. Set-up: method as in PMID 34813314, PMID 35091172, PMID 33532187, PMID 35442700, PMID 24481311. Conditions: known dual PARP1-BRD4 inhibitors ref 15-19; cited from earlier work.
For data set [2], the system named is BRD4. Conditions: cited from earlier work.
Data set [3] has as its system MDA-MB-231. Set-up: method as in PMID 34813314, PMID 35091172, PMID 33532187, PMID 35442700, PMID 24481311. Conditions: 3 days; breast cancer ref 15-19; cited from earlier work.
For data set [4], the system named is MDA-MB-468. Set-up: method as in PMID 34813314, PMID 35091172, PMID 33532187, PMID 35442700, PMID 24481311. The settings on record: 3 days; breast cancer ref 15-19; cited from earlier work.
The target of data set [5] is PARP1 (Homo sapiens, UniProt P09874). Description: In vitro PARP1 enzymatic activity (ELISA, biotinylated NAD+, luminescence). Type of data set: biochemical. As to the method: The inhibition of the tested compounds on PARP1 enzymatic activity was determined by ELISA in 96-well plates. Each well was precoated with histone (20 μg/mL) diluted in 100 μL of PBS buffer (10 mM NaH2PO4, 100 mM Na2HPO4, 150 mM NaCl, pH 7.4) by incubation at 4 °C overnight. […] The reaction was initiated by the addition of 20 μL of PARP1 (50 ng/well) at 30 °C for 1 h. Then the reaction solution was added to 50 μL of streptavidin conjugated HRP. The assay was performed at 30 °C for an additional 30 min. Finally, 100 μL of solution (H2O2 and luminol in citrate buffer 0.1 M, pH 5.4) was added and luminescent signal was measured using a multiwell spectrophotometer (Molecular Devices SpectraMax M5 microplate reader).
Chain of PARP1 (Homo sapiens, UniProt P09874) (P09874 whole entry): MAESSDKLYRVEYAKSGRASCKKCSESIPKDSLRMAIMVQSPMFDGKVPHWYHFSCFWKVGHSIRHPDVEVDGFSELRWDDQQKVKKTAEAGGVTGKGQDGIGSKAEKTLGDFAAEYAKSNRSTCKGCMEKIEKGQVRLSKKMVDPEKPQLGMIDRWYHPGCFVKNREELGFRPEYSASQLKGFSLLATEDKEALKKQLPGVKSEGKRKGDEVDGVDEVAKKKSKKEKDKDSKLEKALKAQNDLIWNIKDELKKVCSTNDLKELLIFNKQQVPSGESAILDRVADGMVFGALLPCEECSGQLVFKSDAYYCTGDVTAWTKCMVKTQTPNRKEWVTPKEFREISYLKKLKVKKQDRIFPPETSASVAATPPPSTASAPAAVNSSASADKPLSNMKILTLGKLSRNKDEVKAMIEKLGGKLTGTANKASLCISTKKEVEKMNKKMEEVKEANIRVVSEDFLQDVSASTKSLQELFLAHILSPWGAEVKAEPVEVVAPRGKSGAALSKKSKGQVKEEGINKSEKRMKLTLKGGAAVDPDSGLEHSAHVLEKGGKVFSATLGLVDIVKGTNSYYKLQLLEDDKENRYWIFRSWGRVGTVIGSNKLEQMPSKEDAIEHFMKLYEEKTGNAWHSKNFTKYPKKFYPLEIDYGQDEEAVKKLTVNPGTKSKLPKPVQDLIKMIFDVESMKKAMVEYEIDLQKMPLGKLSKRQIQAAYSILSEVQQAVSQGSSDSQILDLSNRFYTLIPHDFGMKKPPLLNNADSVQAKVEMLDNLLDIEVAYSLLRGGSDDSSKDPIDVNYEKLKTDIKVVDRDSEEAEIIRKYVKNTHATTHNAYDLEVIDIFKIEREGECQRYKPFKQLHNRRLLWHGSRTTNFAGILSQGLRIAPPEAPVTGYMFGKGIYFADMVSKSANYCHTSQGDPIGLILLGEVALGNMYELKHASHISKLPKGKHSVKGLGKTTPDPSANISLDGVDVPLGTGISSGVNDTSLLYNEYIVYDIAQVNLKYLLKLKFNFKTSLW
For orientation: In an ELISA, binding on a coated surface is turned into a signal by an enzyme label.

In data set [6] the target is BRD4 (Homo sapiens, UniProt O60885). Description: BRD TR-FRET assay, BRD4. It is filed as binding. As to the method: The assay was performed by TR-FRET technology using a BRD and its corresponding ligand (BET). The TR-FRET signal from the assay is correlated with the amount of ligand binding to the bromodomain. All of the binding reactions were conducted at room temperature. The 20 μL reaction mixture in Assay Buffer contains either bromodomains, BET Ligand, and the indicated amount of inhibitor. For the negative control (blank), 5 μL of the assay buffer was added instead of the BET ligand. The reaction mixture was incubated for 120 min. After the incubation with the ligand, the TR-FRET signal was measured using a Tecan Infinite M1000 plate reader.
(Time-resolved FRET reads energy transfer from a long-lived donor to a nearby acceptor.)

Data set [7] deals with MCF-7 cells. Description: Cell viability (MTT), MCF-7. Type of data set: cell-based. The settings on record: Homo sapiens, MCF7, 96 h; 4-day treatment, wild-type BRCA. As to the method:
(§1) MDA-MB-231, MDA-MB-436, and MCF-7 cells were seeded into 96-well plates with the number of 5 × 10^3 in each cell and allowed to incubate for 24 h. Subsequently, various concentrations of the test compounds (ranging from 100 to 0.78 μM with twice gradient dilution) were introduced. After 4 days of incubation, MTT solution was applied, and the cells were incubated for an additional 4 h. Following the removal of the supernatant, the violet crystals were dissolved in 200 μL of DMSO, and the absorbance was measured at 570 nm.

The test system of data set [8] is MDA-MB-231 cells. Description: Cell viability (MTT), MDA-MB-231. It is filed as cell-based. Conditions: Homo sapiens, MDA-MB-231, 96 h; 4-day treatment, wild-type BRCA. As for the experimental part: as §1
Data set [9] in a line: Solubility observed during activity testing. The settings on record: compared with HF2. Type of data set: physicochemical. As to the method:
The inhibitory effects of both enzymes were measured for HF1 and HF2. […] The large discrepancy in BRD4 activities could be attributed to the nonplanar scaffold of HF1, which appears to fit more effectively into the hydrophobic environment formed by Val87, Phe83, and Ile146 (Figure 5B, right). […] Before proceeding further, we made the decision to examine PJ34, a potent and nonselective PARP1 inhibitor,[13] to assess its impact on BRD4 inhibition. […] Given the strong PARP1 activity and relatively low micromolar BRD4 activity of PJ34 relative to HF1 and HF2, we contemplated whether substituting PJ34’s scaffold with that of HF1 could synergistically enhance BRD4 affinity while maintaining strong PARP1 affinity.

In data set [10] the test system is SW1990 cell. Further details: method as in PMID 34813314, PMID 35091172, PMID 33532187, PMID 35442700, PMID 24481311. The settings on record: 4 days; pancreatic cancer ref 15-19; cited from earlier work.
For data set [11], the system named is CFPAC-1 cell. Further details: method as in PMID 34813314, PMID 35091172, PMID 33532187, PMID 35442700, PMID 24481311. Conditions: 4 days; pancreatic cancer ref 15-19; cited from earlier work.
In data set [12] the test system is Capan-1 cell. Set-up: method as in PMID 34813314, PMID 35091172, PMID 33532187, PMID 35442700, PMID 24481311. Conditions: 4 days; pancreatic cancer ref 15-19; cited from earlier work.
Data set [13] concerns MDA-MB-436 cells. Briefly: Cell viability (MTT), MDA-MB-436. The settings on record: Homo sapiens, MDA-MB-436, 96 h; 4-day treatment, BRCA mutant. It is filed as cell-based. As for the experimental part: as §1
For data set [14], the system named is BRD4. Briefly: Western blot, BRD4 expression in MCF-7 cells. Type of data set: cell-based. Conditions: MCF-7, 48 h treatment. As for the experimental part:
(§2) Following a 48 h treatment, cellular proteins were extracted using RIPA cell lysis buffer containing protease and phosphatase inhibitor cocktail. The protein concentration was assessed by using a BCA assay. Subsequently, equal amounts of these proteins were loaded onto an SDS-PAGE gel and transferred onto a PVDF membrane. The protein-loaded membrane was then blocked using a commercial blocking solution (Beyotime, China) and sequentially incubated with primary and secondary antibodies. Protein bands were visualized using an ECL chemiluminescence kit and quantified using ImageJ software.
For orientation: In western blotting, separated proteins are transferred to a membrane and probed.

Data set [15] concerns PARP1. Description: Western blot, PARP1 expression in MCF-7 cells. Type of data set: cell-based. The settings on record: MCF-7, 48 h treatment. As to the method:
as §2

Setting [16] is: known dual PARP1-BRD4 inhibitors ref 15-19.

Like-named read-outs stand apart in the source and are kept apart here.

Broadly, the IC50 is the concentration that gives 50% inhibition. On to `COc1cc(OC)c2c(=O)[nH]c(-c3ccc(OCCOc4ccccc4C(N)=O)cc3)nc2c1` [ADTL-BPI1901], for which the IC50 in [1] was 4.6 µM; in data set [2] (setting [16]) it was 0.4 µM; in data set [3], 15.6 ± 1.72 µM; in [4], 6.42 ± 1.31 µM.

Regarding `COc1cc(OC)c2c(=O)[nH]c(-c3cccc(Cc4n[nH]c(=O)c5ccccc45)c3)nc2c1` [BP44], the IC50 in [1] was 0.197 µM; in [2] (setting [16]) it was 0.238 µM; in [3], 6.61 ± 0.58 µM; in data set [4] it was 3.01 ± 0.83 µM.

`Cc1cc(S(=O)(=O)Nc2ccc3[nH]c(=O)c4c(c3c2)CCCC4)ccc1F` [HF1, 4-fluoro-3-methyl-N-(6-oxo-5,6,7,8,9,10-hexahydrophenanthridin-2-yl)benzenesulfonamide]: the IC50 was found to be 0.094 µM in data set [5]; 3.56 ± 0.951 µM in data set [6]; 3.5 µM in data set [6] (value of the text); 11.4 µM in data set [7]; 31.9 µM in data set [8]. The “BRD4 potency relative to HF2” value in data set [6] (more potent than HF2) worked out at 10 times. Also, the “solubility during activity testing” value in [9] was “higher solubility”.

Take `Cc1cc(S(=O)(=O)Nc2ccc3[nH]c(=O)c4ccccc4c3c2)ccc1F` [HF2]: the IC50 stood at 0.339 ± 0.086 µM in data set [5] and 32.6 ± 6.34 µM in [6].

`CN(C)CC(=O)Nc1ccc2[nH]c(=O)c3c(c2c1)CCCC3` [HF3, 2-(dimethylamino)-N-(6-oxo-5,6,7,8,9,10-hexahydrophenanthridin-2-yl)acetamide]: the values for the IC50 in [5], in data set [6] and in data set [6] (value of the text) were 0.016 µM, 28.8 ± 6.99 µM and ~28 µM, respectively.

With `CCc1cc2cc(NC(=O)CN(C)C)ccc2[nH]c1=O` [HF5, 2-(dimethylamino)-N-(3-ethyl-2-oxo-1,2-dihydroquinolin-6-yl)acetamide], the IC50 in data set [5] is 0.736 µM; in [6], 34.3 ± 7.9 µM; in [6] (value of the text) it was ~34.3 µM.

On to `Cc1noc(C)c1-c1ccc2c(c1)C(c1ccccc1)N(Cc1nc3c(C(N)=O)cccc3[nH]1)C(=O)N2C` (stereo not shown) [III-7], for which the IC50 in [1] is 0.049 µM; in data set [2] (setting [16]) it was 0.202 µM; in [10] it was 1.34 ± 0.16 µM; in data set [11] it was 1.31 ± 0.11 µM; in data set [12], 1.71 ± 0.21 µM.

With `CC[C@@H]1C(=O)N(C)c2cnc(N(C)c3ccc(-c4nc5c(C(N)=O)cccc5[nH]4)cc3OC)nc2N1C1CCCC1` [III-16], the results for the IC50 in [1], in data set [2] (setting [16]) and in [10] were 0.013 µM, 0.101 µM and 0.98 ± 0.13 µM, respectively.

`Cc1sc2c(c1C)C(c1ccc(Cl)cc1)=N[C@@H](CC(=O)OC(C)(C)C)c1nnc(C)n1-2` [JQ1, reference compound]: the IC50 was determined as 0.9 ± 0.1 µM in data set [7], 1.2 ± 0.4 µM in [8] and 4.7 ± 1.9 µM in [13]. The BRD4 expression entry in [14] is “significantly enhances its levels”. Also, in data set [15], the PARP1 expression result was “significant increase”.

With `O=C(c1cc(Cc2n[nH]c(=O)c3ccccc23)ccc1F)N1CCN(C(=O)C2CC2)CC1` [Olaparib, olaparib, reference compound], the IC50 in [7] is 27.2 ± 3.5 µM; in data set [8] it was 13.9 ± 2.6 µM; in data set [13], 2.2 µM.

For orientation: inhibition means how much of the control response was suppressed. With `COc1ccccc1S(=O)(=O)Nc1ccc2c(c1)CN(C)C(=O)N2` [PFI-1, reference compound], the inhibition at 10 µM in [5] (10 μM, read-out: PARP1 inhibition rate) was determined as 10%. Also, the IC50 in data set [2] is 0.22 µM.

For `CN(C)CC(=O)Nc1ccc2[nH]c(=O)c3ccccc3c2c1` [PJ34, 2-(dimethylamino)-N-(6-oxo-5,6-dihydrophenanthridin-2-yl)acetamide, reference compound], the IC50 in data set [6] stood at 2.07 ± 0.588 µM.

In the case of `COc1cc(OC)c2c(=O)[nH]c(-c3cc(C)c(OCCO)c(C)c3)nc2c1` [RVX-208, apabetalone, reference compound], in data set [5] (at 10 μM), the “activity against PARP1” value is given as “no activity”.
